# Test results published in US20240091235A1, “USE AS SELECTIVE AGONIST OF MELANOCORTIN-4 RECEPTOR” (priority 2020, published 2024).
# Where a name gives a salt, the structure may show the parent alone.
# Columns and labels:
# [1] = tested on: skin and skin hair pigmentation; assay: Skin pigmentation in repeated toxicity test in monkeys; assay type: in vivo; conditions: repeatedly administered for 2 weeks, FIG. 2
# Protocol: In order to confirm the possibility of occurrence of skin pigmentation—which is an off-target effect of MC4R agonist, pigmentation patterns in the skin and skin hair were measured in a repeated toxicity test in monkeys, and the results are represented in FIG. 2.
# MC1R [2] = biological target: T1, MC1R (Homo sapiens, UniProt Q01726); assay: Pathhunter eXpress β-arrestin assay (U2OS cell line), MC1R; assay type: cell-based; parameters: expressed in transfected cells; host or cells: U2OS (Pathhunter eXpress β-arrestin cell line); conditions: 90 minutes at 37° C.
# From the text: (§1) A Pathhunter eXpress β-arrestin cell line (U2OS cell line) in which Prolink (PK)-tagged MC1R and MC4R, and enzyme acceptor (EA)-tagged β-arrestin were expressed together was established. When the MCR-PK portion of this cell line is activated, β-arrestin-EA is mobilized, and enzyme acceptor (EA) and Prolink (PK), which are the β-galactosidase enzyme fragments, interact. The activated enzyme hydrolyzes the substrate by β-galactosidase activity to produce a chemiluminescent signal, so that the activity can be measured. After the Pathhunter eXpress β-arrestin cell line (U2OS cell line) was incubated, the cells were inoculated into each well of the cell culture plate and incubated for 48 hours in a 37° C. incubator in the presence of 5% CO2. After the incubation, 5 μL of the sample diluted 5 times with buffer was added, the vehicle concentration was set to 1%, and the MC4R agonist compound diluted at each step concentration was added, followed by reaction at 37° C. for 90 minutes. The activity (%) of each agonist compound is expressed as 100%×(average RLU value of sample−average RLU value of vehicle control)/(average maximum value of control ligand−average RLU value of vehicle control), and the value was analyzed by CBIS data analysis suite (ChemInnovation, CA).
# Target sequence in this assay (Q01726 whole entry, the tested form may be a part): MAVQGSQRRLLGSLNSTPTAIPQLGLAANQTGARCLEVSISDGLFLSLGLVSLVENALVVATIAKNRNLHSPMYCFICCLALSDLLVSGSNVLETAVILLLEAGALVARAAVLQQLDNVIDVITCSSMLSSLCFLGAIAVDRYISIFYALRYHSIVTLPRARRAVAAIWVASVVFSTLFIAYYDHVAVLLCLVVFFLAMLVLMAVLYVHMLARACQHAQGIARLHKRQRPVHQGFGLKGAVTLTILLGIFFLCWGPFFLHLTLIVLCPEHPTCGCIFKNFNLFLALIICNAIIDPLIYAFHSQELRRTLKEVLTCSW
# Target sequence in this assay (P32121 whole entry partner, the tested form may be a part): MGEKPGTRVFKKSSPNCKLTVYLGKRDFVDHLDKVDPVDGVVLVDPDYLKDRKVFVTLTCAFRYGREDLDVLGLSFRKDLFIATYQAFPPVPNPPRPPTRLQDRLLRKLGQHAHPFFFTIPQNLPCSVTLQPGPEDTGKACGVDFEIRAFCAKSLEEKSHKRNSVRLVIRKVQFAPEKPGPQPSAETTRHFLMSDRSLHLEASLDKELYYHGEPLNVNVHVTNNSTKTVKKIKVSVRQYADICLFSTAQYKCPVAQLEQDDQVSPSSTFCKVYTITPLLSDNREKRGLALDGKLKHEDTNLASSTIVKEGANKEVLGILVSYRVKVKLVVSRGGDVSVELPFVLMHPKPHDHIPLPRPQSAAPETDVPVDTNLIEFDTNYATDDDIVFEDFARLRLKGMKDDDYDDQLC
# MC4R [3] = biological target: T2, MC4R (Homo sapiens, UniProt P32245); assay: cAMP Hunter Gs-coupled cAMP assay (CHO-K1 cell line), MC4R; assay type: cell-based; parameters: expressed in transfected cells; host or cells: CHO-K1 (cAMP Hunter Gs-coupled cell line)
# Protocol: (§2) After cAMP Hunter Gs-coupled cell lines (CHO-K1 cell line) in which each of MC1R and MC4R was overexpressed were established so that the increase in the cAMP level in cells due to agonist reaction was measurable, the cells were inoculated into each well of a white cell culture plate and incubated for 24 hours in a 37° C. incubator in the presence of 5% CO2. After the incubation, the medium was removed, and 15 μL of a 2:1 HBBS/10 mM HEPES:cAMP XS+Ab reagent was added. After 5 μL of the sample diluted 4 times with buffer was added, the vehicle concentration was set to 1%, and the MC4R agonist compound diluted at each step concentration was added, followed by reaction at 37° C. for 30 minutes. The activity (%) of each agonist compound is expressed as 100%×(average RLU value of sample−average RLU value of vehicle control)/(average RLU value of max control−average RLU value of vehicle control), and the value was analyzed by CBIS data analysis suite (ChemInnovation, CA).
# Target sequence in this assay (P32245 whole entry): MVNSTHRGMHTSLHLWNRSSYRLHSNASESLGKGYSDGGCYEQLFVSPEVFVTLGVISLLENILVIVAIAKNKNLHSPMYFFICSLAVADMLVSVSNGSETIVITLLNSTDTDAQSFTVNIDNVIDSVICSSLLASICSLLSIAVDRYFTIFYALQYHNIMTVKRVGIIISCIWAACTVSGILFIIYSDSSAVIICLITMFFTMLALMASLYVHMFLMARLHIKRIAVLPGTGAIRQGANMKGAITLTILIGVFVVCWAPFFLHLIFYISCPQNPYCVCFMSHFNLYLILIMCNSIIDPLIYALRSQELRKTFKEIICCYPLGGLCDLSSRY
# [4] = biological target: T3, melanocortin-4 receptor (MC4R) (Homo sapiens, UniProt P32245); assay: Luciferase assay (CRE-LUC), HEK MC4R-Luc cells; assay type: cell-based
# T3 construct: expressed in transfected cells
# MC4R [5] = biological target: T2, MC4R; assay: Pathhunter eXpress β-arrestin assay (U2OS cell line), MC4R; assay type: cell-based; parameters: expressed in transfected cells; host or cells: U2OS (Pathhunter eXpress β-arrestin cell line)
# From the text: as §1
# Target sequence in this assay (P32245 whole entry): as above
# Target sequence in this assay (P32121 whole entry partner): as the sequence (P32121 whole entry partner, the tested form may be a part) above
# MC1R [6] = biological target: T1, MC1R; assay: Binding affinity, membranes of CHO-K1 cell line expressing human recombinant MC1R; parameters: expressed in transfected cells; host or cells: CHO-K1 (membranes); conditions: 25 mM HEPES-KOH buffer pH 7.0
# Protocol: In a 96-well cell culture plate, the cell line membrane and 25 mM HEPES-KOH adsorption buffer (pH 7.0) containing the MCR agonist diluted at each step concentration were added, and the reaction was carried out.
# Target sequence in this assay (Q01726 whole entry, the tested form may be a part): as the sequence (Q01726 whole entry, the tested form may be a part) above
# [7] = biological target: T4, melanocortin-1 receptor (MC1R) (Homo sapiens, UniProt Q01726); assay: Luciferase assay (CRE-LUC), HEK MC1R-Luc cells; assay type: cell-based; conditions: luminescence relative to 10 μM NDP-α-MSH
# T4 construct: expressed in transfected cells
# Protocol: In order to measure the agonist ability for melanocortin-1 receptor (MC1R) and melanocortin-4 receptor (MC4R), a cell line that permanently expresses MC1R, MC4R and the luciferase gene (CRE-LUC) under the control of CRE (cAMP response element) was established.
# After a mammalian cell expression vector (pCDNA3 (Neo)) (Invitrogen) containing the MC1R and MC4R genes was prepared, human embryonic kidney (HEK) cell lines were transformed by using Lipofectamine 2000 (Invitrogen) together with a vector (pCRE-Luc)(Stratagen) expressing a luciferase gene (CRE-LUC) under the control of a cAMP response element (CRE). […] Each well was treated with 50 μL of a Bright-Glo luciferase reagent (Promega) and left at room temperature for 15 minutes, and then the luminescence of each well was measured by using a luminometer (Victor).
# HEK MC1R-Luc cells and HEK MC4R-Luc cells were added to each well of a 96-well luminometer cell culture plate (Costar) to a size of 2.5×10^4 cells in 100 μL of a culture medium and then incubated in a 37° C. incubator in the presence of 6% CO2 for 18 hours. […] Each well was treated with 50 μL of a Bright-Glo luciferase reagent (Promega) and left at room temperature for five minutes, and then the luminescence of each well was measured by using a luminometer (Victor). […] The measurements were measured using statistical software (Prizm).
# MC4R [8] = biological target: T2, MC4R; assay: Binding affinity, membranes of HEK-293 cell lines expressing MC4R; parameters: expressed in transfected cells
# Protocol: After the CHO-K1 cell line expressing human recombinant MC1R and the HEK-293 cell lines expressing MC4R were established, membranes were collected from each cell line. In a 96-well cell culture plate, the cell line membrane and 25 mM HEPES-KOH adsorption buffer (pH 7.0) containing the MCR agonist diluted at each step concentration were added, and the reaction was carried out. EC50 was calculated as a concentration that induces 50% of the maximum binding that can be induced by each agonist, and the results are represented in Table 2.
# Target sequence in this assay (P32245 whole entry): as the sequence (P32245 whole entry) above
# MC1R [9] = biological target: T1, MC1R; assay: cAMP Hunter Gs-coupled cAMP assay (CHO-K1 cell line), MC1R; assay type: cell-based; parameters: expressed in transfected cells; host or cells: CHO-K1 (cAMP Hunter Gs-coupled cell line); conditions: 30 minutes at 37° C.
# Protocol: as §2
# Target sequence in this assay (Q01726 whole entry, the tested form may be a part): as the sequence (Q01726 whole entry, the tested form may be a part) above
# [10] = mouse, in vivo
# Protocol: With respect to skin pigmentation—which is an off-target effect of MC4R agonist, the distribution and accumulation of the drug were evaluated by measuring the drug concentration in the skin and plasma after repeated administration in a db/db mouse model lacking leptin receptor.
# skin pigmentation = conditions: reported, Clement et al., Nature Medicine, 2018; cited from earlier work
# [11] = ratio of EC50 in MC1R to EC50 in MC4R
# T3 sequence (P32245 whole entry): as the sequence (P32245 whole entry) above
# T4 sequence (Q01726 whole entry): as the sequence (Q01726 whole entry, the tested form may be a part) above
Compound,Pigmentation on the skin and skin hair [1],EC50 (MC1R [2]),"EC50 (MC4R [3]; CHO-K1 cell line, 30 minutes at 37° C.)",Ratio MC1R/MC4R (cAMP) (MC4R [3]; [11]),"EC50 ([4]; HEK MC4R-Luc cells, luminescence relative to 10 μM NDP-α-MSH)","Ratio MC1R/MC4R (Luciferase) [4, 11]","EC50 (MC4R [5]; U2OS cell line, 90 minutes at 37° C.)",Ratio MC1R/MC4R (β-Arrestin) (MC4R [5]; [11]),EC50 (MC1R [6]),EC50 [7],"EC50 (MC4R [8]; HEK-293 membranes, 25 mM HEPES-KOH buffer pH 7.0)",Ratio MC1R/MC4R (Binding) (MC4R [8]; [11]),EC50 (MC1R [9]),Accumulation of drug in the skin [10],Skin pigmentation in clinical trials (skin pigmentation)
"CC(C)C(=O)N([C@H]1C[C@@H](C(=O)N2CCOCC2)N(C(=O)[C@@H]2CN(C(C)(C)C)C[C@H]2c2ccc(Cl)cc2)C1)[C@H]1CC[C@@H](C)CC1.Cl [Test Compound, N-((3S,5S)-1-((3S,4R)-1-(tert-butyl)-4-(4-chlorophenyl)pyrrolidine-3-carbonyl)-5-(morpholine-4-carbonyl)pyrrolidin-3-yl)-N-((1s,4R)-4-methylcyclohexyl)isobutyramide hydrochloride]",pigmentation did not appear on the skin and skin hair,195 nM,16.3 nM,5.21,0.434 nM,5.76,5.14 nM,37.98,310 nM,2.5 nM,62 nM,5.00,84.8 nM,did not relatively accumulate in the skin,–
"CC(=O)N[C@@H](CCCNC(=N)N)C(=O)N[C@H]1CSSC[C@@H](C(N)=O)NC(=O)[C@H](Cc2c[nH]c3ccccc23)NC(=O)[C@H](CCCNC(=N)N)NC(=O)[C@@H](Cc2ccccc2)NC(=O)[C@H](Cc2c[nH]cn2)NC(=O)[C@@H](C)NC1=O [setmelanotide, Ac-RC[dA]H[dF]RWC-NH2 (disulfide) (AcOH salt)]",–,–,–,–,–,–,–,–,–,–,–,–,–,–,show skin pigmentation
